According to US9938261B2, “Heterocyclic compounds and methods of use thereof” (AMBIT BIOSCIENCES CORPORATION, priority 2011, dated 2018):
pIC50, pKd: −log10 of the molar value. Like-named read-outs stand apart in the source and are kept apart here.

Tests used:
[1] = biological target: CSF1R (Homo sapiens, UniProt P07333); assay: Competition binding assay, CSF1R Kd; design: made in house
Outline: (§1)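 Compound displacement of kinase from bead-immobilized ligand is measured by qPCR after 1 h equilibration at room temperature. Kinases are T7 phage fusions or DNA-tagged HEK-293 products.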

[2] = biological target: T1, PDGFRβ (Homo sapiens, UniProt P09619); assay: Competition binding assay, PDGFRβ Kd
T1 construct: made in house
T1 sequence (P09619 33-1106): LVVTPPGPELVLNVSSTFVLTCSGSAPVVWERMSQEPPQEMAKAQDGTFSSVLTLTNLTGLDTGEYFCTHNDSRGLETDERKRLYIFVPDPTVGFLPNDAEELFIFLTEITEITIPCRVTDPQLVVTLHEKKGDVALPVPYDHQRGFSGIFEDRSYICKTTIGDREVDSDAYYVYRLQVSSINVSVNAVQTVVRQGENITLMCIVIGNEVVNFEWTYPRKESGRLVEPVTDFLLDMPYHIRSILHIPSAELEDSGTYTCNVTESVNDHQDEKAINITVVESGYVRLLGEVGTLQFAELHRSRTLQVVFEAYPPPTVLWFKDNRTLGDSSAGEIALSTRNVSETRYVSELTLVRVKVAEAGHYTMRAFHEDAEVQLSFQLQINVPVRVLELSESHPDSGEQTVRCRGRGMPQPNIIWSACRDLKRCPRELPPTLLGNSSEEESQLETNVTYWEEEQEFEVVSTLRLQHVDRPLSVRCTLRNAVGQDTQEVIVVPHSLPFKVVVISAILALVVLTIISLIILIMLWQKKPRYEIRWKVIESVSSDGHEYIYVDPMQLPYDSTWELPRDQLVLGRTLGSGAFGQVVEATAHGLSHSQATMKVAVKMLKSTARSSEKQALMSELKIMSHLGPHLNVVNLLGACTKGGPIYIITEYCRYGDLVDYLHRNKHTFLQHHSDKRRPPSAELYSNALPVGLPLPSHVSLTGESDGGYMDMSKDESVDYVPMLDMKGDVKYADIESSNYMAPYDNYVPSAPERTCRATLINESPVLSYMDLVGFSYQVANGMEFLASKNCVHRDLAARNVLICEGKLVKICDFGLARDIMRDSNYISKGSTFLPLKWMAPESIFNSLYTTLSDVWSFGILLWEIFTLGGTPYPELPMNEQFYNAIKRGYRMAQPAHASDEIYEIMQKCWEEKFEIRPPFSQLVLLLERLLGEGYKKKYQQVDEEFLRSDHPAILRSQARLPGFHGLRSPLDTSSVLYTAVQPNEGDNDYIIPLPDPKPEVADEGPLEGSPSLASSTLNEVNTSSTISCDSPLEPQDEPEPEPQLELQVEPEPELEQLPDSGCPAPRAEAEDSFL
Outline: as §1

[3] = test system: M-NFS-60 cells; assay: M-NFS-60 cell proliferation assay (Alamar Blue); type: cell-based, mouse; conditions: Mus musculus, read-out: CSF1R M-NFS-60 CTB:IC50
Outline: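 Alamar Blue reduction (3 h; 560/590 nm) measured viability after 72 h, 37 °C treatment with nine half-log compound concentrations at 0.5% DMSO. Cells: M-CSF-dependent (20 ng/mL) murine M-NFS-60 in RPMI plus 10% FBS. IC50s, averaged from duplicates, reflect half-maximal inhibition of proliferation relative to control.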

[4] = biological target: T2, FLT3 (Homo sapiens, UniProt P36888); assay: Competition binding assay, FLT3 Kd
T2 construct: made in house
T2 sequence (P36888 27-993): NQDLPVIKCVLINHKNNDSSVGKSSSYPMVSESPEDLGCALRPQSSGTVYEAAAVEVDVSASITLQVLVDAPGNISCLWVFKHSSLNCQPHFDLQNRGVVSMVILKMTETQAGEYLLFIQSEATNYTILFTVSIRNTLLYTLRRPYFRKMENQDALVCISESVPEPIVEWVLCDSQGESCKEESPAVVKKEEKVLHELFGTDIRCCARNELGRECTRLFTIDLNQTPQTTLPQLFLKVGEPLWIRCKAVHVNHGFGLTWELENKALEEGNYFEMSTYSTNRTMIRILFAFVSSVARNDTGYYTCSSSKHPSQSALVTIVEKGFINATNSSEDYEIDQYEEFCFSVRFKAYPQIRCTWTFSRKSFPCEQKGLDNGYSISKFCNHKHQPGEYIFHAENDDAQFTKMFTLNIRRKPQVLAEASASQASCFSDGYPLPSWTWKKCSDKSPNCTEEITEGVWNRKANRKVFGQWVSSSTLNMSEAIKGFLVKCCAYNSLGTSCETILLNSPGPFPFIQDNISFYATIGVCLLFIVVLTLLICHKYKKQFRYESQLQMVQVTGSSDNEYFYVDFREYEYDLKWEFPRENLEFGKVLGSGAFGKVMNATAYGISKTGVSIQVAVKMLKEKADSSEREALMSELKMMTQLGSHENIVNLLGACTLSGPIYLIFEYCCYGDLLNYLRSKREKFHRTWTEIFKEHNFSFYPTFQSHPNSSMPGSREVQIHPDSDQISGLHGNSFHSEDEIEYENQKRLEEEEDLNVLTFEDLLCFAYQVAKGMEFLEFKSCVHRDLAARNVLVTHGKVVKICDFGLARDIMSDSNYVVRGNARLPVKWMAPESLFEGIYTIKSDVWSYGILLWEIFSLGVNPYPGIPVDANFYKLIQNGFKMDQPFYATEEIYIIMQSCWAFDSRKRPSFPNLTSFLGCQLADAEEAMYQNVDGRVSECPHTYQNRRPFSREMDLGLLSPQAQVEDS
Outline: as §1

[5] = biological target: kinase panel containing either 386 or 392 distinct kinases; assay: Kinase selectivity score S10 from competition binding panel
Outline: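 S10 is the number of kinases with percent-of-control under 10, divided by all distinct wild-type kinases tested, from a single 10 μM concentration. Binding measured by qPCR of kinase recovered from ligand-coated beads after 1 h equilibrium at room temperature; kinases were phage fusions or DNA-tagged HEK-293 products.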

[6] = biological target: T3, KIT (Homo sapiens, UniProt P10721); assay: Competition binding assay, KIT Kd
T3 construct: made in house
T3 sequence (P10721 26-976): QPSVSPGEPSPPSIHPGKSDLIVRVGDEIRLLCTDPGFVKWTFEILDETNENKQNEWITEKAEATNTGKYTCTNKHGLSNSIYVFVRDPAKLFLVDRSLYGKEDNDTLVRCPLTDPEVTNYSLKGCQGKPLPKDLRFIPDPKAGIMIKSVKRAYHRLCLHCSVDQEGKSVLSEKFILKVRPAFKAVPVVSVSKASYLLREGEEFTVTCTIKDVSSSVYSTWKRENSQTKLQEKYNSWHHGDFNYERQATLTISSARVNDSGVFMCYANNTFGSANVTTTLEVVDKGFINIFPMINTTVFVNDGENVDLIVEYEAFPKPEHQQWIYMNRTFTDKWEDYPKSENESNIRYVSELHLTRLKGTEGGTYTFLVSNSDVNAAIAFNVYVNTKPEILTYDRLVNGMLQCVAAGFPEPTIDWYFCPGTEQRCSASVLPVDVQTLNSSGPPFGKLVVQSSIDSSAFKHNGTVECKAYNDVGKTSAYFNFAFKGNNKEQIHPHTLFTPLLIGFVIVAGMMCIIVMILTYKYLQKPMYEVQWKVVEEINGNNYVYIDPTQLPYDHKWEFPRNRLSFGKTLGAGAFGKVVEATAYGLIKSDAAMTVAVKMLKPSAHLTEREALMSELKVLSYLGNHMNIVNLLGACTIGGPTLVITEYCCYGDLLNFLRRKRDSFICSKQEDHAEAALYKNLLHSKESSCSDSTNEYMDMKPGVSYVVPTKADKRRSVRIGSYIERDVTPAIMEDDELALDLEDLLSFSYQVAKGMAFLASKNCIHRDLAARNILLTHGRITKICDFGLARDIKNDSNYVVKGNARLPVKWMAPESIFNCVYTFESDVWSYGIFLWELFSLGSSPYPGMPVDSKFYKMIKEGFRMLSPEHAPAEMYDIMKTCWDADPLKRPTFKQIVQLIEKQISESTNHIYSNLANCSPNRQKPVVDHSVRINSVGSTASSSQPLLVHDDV
Outline: as §1

[7] = 72 hours incubation, M-CSF 20 ng/mL
[8] = compounds at 10 μM, 386 or 392 distinct kinases

CSF1R, sequence (P07333 20-972): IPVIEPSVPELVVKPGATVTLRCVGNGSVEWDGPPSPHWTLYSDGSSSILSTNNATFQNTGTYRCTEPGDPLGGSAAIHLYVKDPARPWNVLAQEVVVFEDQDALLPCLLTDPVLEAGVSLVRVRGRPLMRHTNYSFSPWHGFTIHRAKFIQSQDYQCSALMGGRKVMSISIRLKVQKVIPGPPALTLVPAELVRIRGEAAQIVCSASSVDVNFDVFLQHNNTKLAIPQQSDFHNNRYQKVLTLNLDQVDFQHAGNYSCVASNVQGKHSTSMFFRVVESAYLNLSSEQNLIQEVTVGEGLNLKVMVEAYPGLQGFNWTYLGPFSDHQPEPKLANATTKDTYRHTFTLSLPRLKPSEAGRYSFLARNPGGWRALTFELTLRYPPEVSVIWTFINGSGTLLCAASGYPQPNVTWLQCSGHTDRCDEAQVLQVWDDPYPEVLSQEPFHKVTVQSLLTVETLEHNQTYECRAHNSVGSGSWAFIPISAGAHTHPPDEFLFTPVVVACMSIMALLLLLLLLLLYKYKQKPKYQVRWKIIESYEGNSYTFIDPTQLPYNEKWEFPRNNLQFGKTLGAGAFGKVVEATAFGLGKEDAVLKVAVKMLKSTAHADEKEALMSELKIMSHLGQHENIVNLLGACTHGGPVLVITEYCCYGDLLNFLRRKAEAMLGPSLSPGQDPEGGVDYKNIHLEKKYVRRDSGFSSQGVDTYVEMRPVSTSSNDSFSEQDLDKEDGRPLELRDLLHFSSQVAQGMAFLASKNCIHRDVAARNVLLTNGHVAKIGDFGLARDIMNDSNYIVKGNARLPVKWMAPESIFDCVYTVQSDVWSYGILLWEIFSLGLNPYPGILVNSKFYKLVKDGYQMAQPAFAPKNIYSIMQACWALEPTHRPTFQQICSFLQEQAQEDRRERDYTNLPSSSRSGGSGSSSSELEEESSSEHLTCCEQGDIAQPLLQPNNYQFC

pKd [1]	pKd [2]	pKd [4]	Kinase specificity S(10) [5, 8]	pKd [6]	pKd ([1]; competition binding)	pKd ([2]; competition binding)	pKd ([4]; competition binding)	Kinase specificity S(10) ([5]; 10 μM, panel of 386 or 392 distinct kinases)	pKd ([6]; competition binding)	SMILES	pIC50 [3, 7]	pIC50 ([3]; M-NFS-60 cell proliferation)
7.70 to 8.30	≥ 7.30	6.00 to 6.70	B (0.01<B≤0.02)	≥ 7.00	–	–	–	–	–	CCc1cnc2c(c1)ncn2Cc1ccc2nc(N[C@@H]3CCCC[C@H]3O)sc2c1 [Example 102, (1R,2R)-2-((6-((6-ethyl-3H-imidazo[4,5-b]pyridin-3-yl)methyl)benzo[d]thiazol-2-yl)amino)cyclohexanol]	≥ 7.30	–
≥ 8.30	≥ 7.30	6.00 to 6.70	B (0.01<B≤0.02)	≥ 7.00	–	–	–	–	–	N#Cc1ccc2ncn(Cc3ccc4nc(N[C@@H]5CCCC[C@H]5O)sc4c3)c2n1 [Example 87, 3-((2-(((1R,2R)-2-hydroxycyclohexyl)amino)benzo[d]thiazol-6-yl)methyl)-3H-imidazo[4,5-b]pyridine-5-carbonitrile]	≥ 7.30	–
–	–	–	–	–	7.70 to 8.30	6.30 to 7.30	5.30 to 6.00	A (A≤0.01)	5.70 to 6.30	C=Cc1ccn2c(Cc3ccc4nc(N[C@@H]5CCCC[C@H]5O)sc4c3)cnc2c1 [Example 216, (1R,2R)-2-((6-((7-vinylimidazo[1,2-a]pyridin-3-yl)methyl)benzo[d]thiazol-2-yl)amino)cyclohexanol]	–	6.40 to 7.30
≥ 8.30	≥ 7.30	≥ 6.70	C (C>0.02)	≥ 7.00	–	–	–	–	–	Cn1cc(-c2cnc3c(c2)ncn3Cc2ccc3nc(N[C@@H]4CCCC[C@H]4O)sc3c2)cn1 [Example 39, (1R,2R)-2-((6-((6-(1-methyl-1H-pyrazol-4-yl)-3H-imidazo[4,5-b]pyridin-3-yl)methyl)benzo[d]thiazol-2-yl)amino)cyclohexanol]	≥ 7.30	–
